The record followed here is BindingDB's records for doi:10.1021/jm950639r (Eli Lilly, 1996).

A word on the IC50: it is the concentration needed to halve the response being measured.

Holding throughout (test): HIV-1 RT Assay
Assay [1] deals with T1, Gag-Pol polyprotein [588-1127,L687I]/[588-1147,L687I] (Human immunodeficiency virus 1, UniProt P04585, L687I).
T1 construct: 588-1127; 588-1147

Assay [2] deals with T2, Gag-Pol polyprotein [588-1027]/[588-1147] (Human immunodeficiency virus 1, UniProt P04585).
T2 construct: 588-1027; 588-1147

Assay [3] deals with T3, Gag-Pol polyprotein [588-1127,Y768C]/[588-1147,Y768C] (Human immunodeficiency virus 1, UniProt P04585, Y768C).
T3 construct: 588-1127; 588-1147

With `S=C(NCCc1c[nH]c2ccccc12)Nc1ccc(Br)cn1` [1-(5-bromopyridin-2-yl)-3-[2-(1H-indol-3-yl)ethyl]thiourea], the 50% inhibitory concentration (IC50) in assay [1] is more than 2500 nM.

`CCOc1ccc(OCC)c(CCNC(=S)Nc2ccc(Br)cn2)c1` [1-(5-bromopyridin-2-yl)-3-[2-(2,5-diethoxyphenyl)ethyl]thiourea] registered an IC50 in assay [2] of 18 nM.

On to `Cc1cc2nn(CCNC(=S)Nc3ccc(Br)cn3)nc2cc1C` [1-(5-bromopyridin-2-yl)-3-[2-(5,6-dimethyl-2H-1,2,3-benzotriazol-2-yl)ethyl]thiourea], for which the figures for the IC50 in assay [3] and in assay [1] were 100 nM and more than 2500 nM, respectively.

Compound `COc1ccc2[nH]cc(CC/N=C(\S)Nc3ccc(Br)cn3)c2c1` [1-(5-bromopyridin-2-yl)-3-[2-(5-methoxy-1H-indol-3-yl)ethyl]thiourea] gave an IC50 in assay [1] of more than 2500 nM.

With `COCc1ccc(F)c(CCNC(=S)Nc2ccc(Br)cn2)c1F` [1-(5-bromopyridin-2-yl)-3-{2-[2,6-difluoro-3-(methoxymethyl)phenyl]ethyl}thiourea], the IC50 in assay [3] (pH 7.8, 37 °C) was determined as 100 nM. This lies in the sub-micromolar range.

As for `CCOc1ccc(F)c(CCNC(=S)Nc2ncc(C(F)(F)F)s2)c1Cl` [1-[2-(2-chloro-3-ethoxy-6-fluorophenyl)ethyl]-3-[5-(trifluoromethyl)-1,3-thiazol-2-yl]thiourea], the IC50 in assay [3] was 7000 nM; in assay [1] it was 7000 nM; in assay [2] it was 47 nM.

Regarding `CNC(=O)c1ccc(F)c(CC/N=C(\S)Nc2ccc(Br)cn2)c1F` [3-(2-{[(5-bromopyridin-2-yl)carbamothioyl]amino}ethyl)-2,4-difluoro-N-methylbenzamide], the IC50 in assay [3] (pH 7.8, 37 °C) is more than 2000 nM; in assay [1] (pH 7.8, 37 °C), more than 2000 nM.

With `S=C(NCCn1nc2ccccc2n1)Nc1ccc(Br)cn1` [3-[2-(2H-1,2,3-benzotriazol-2-yl)ethyl]-1-(5-bromopyridin-2-yl)thiourea], the IC50 in assay [3] amounted to 100 nM.

With `CC(C)=CCN1Cc2cc(Cl)cc3[nH]c(=S)n(c23)C[C@@H]1C` [(11S)-6-chloro-11-methyl-10-(3-methylbut-2-en-1-yl)-1,3,10-triazatricyclo[6.4.1.0^{4,13}]trideca-4,6,8(13)-triene-2-thione], the values for the IC50 in assay [3] and in assay [1] were 13000 nM and 32200 nM, respectively.

As for `S=C(NCCc1nc2ccccc2[nH]1)Nc1ccc(Br)cn1` [N-[2-(2-Benzimidazolyl)ethyl]-N-[2-(5-bromopyridyl)]-thiourea], the IC50 in assay [3] was 1860 nM; in assay [1] it was more than 2500 nM; in assay [2] it was 21 nM.

`CC(=O)NCc1ccc(F)c(CCNC(=S)Nc2ccc(Br)cn2)c1F` [N-[2-(3-(Acetamidomethyl)-2,6-difluorophenethyl)]-N-[2-(5-bromopyridyl)]thiourea]: the IC50 is more than 2000 nM in assay [3] (pH 7.8, 37 °C) and more than 2000 nM in assay [1] (pH 7.8, 37 °C).
